This experiment deals with human Nav1.7 (Homo sapiens (Human), UniProt Q15858). Kind of experiment: FRET-based membrane potential assay, recombinant human sodium channel Nav1.7. Format: cell-based. To be noted: HEK293 cells stably expressing recombinant human Nav1.7; depolarization with veratridine (EC80) + scorpion venom. As to the method: FRET-Based Membrane Potential Assays.
Sequence of human Nav1.7 (Q15858 whole entry): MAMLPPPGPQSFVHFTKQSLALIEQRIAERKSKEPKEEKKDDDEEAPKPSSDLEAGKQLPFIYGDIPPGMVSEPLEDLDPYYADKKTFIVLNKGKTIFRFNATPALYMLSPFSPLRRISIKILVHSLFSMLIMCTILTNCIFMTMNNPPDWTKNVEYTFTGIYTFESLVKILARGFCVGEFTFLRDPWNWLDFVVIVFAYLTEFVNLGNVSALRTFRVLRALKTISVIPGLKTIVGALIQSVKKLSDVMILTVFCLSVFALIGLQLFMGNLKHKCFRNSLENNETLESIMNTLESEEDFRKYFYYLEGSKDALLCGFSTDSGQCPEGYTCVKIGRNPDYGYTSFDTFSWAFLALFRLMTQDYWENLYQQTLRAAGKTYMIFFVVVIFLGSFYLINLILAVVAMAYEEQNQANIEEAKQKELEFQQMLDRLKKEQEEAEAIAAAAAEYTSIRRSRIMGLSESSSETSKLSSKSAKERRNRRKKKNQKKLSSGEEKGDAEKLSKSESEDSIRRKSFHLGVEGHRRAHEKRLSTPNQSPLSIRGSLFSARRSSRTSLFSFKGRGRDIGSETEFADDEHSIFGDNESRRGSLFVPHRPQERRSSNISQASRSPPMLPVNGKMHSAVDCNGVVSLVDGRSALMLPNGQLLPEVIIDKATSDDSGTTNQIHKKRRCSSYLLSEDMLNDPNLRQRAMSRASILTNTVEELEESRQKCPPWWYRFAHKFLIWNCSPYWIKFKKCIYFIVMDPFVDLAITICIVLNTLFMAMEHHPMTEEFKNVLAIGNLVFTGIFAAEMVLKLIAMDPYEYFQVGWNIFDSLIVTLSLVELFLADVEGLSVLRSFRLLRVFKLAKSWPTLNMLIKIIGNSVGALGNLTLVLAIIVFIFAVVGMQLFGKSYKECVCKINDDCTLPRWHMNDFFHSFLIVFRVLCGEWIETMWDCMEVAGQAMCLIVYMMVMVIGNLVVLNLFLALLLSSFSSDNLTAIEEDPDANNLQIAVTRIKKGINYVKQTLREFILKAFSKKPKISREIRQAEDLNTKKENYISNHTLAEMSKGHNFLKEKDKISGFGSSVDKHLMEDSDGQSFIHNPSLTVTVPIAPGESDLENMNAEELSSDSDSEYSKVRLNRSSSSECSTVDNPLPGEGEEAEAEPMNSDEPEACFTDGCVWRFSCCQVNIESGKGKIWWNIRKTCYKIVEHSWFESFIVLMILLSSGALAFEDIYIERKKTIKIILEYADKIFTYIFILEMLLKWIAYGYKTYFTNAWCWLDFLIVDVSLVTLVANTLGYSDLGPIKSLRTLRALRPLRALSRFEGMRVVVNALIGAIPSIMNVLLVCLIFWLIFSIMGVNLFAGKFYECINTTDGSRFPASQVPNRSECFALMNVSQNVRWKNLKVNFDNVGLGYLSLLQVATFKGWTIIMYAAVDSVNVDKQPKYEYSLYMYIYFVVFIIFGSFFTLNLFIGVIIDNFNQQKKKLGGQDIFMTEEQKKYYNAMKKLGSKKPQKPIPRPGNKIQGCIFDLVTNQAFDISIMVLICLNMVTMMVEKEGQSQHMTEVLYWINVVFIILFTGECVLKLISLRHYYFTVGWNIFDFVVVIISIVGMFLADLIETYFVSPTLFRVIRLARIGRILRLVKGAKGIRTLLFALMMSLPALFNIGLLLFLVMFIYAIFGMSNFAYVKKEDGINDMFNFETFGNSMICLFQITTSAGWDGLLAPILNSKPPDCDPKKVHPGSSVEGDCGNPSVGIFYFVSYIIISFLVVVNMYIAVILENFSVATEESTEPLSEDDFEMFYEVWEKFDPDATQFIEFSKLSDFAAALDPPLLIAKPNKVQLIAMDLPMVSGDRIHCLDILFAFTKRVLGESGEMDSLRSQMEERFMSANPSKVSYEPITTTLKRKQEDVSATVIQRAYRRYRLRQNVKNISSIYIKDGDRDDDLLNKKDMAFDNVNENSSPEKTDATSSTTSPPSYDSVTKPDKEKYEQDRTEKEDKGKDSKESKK
Recombinant, Human Sodium Channel, Nav1.7.
Two days prior to the experiment, frozen HEK293 cells stably expressing recombinant human Nav1.7 were quickly thawed and plated at 25,000 cells/well in growth medium [DMEM (Invitrogen #11965) with 10% HI FBS (Invitrogen #10082), 2 mM glutamine, 100 units/mL penicillin, 0.1 mg/mL streptomycin (PSG, Sigma #G1146), and 500 μg/mL Geneticin (Invitrogen #10131)] in black-walled, clear-bottom 384-well poly-D-lysine-coated assay plates (Greiner Bio-One, Frickenhausen, Germany) and incubated in a humidified 5% CO2 incubator at 37° C. On the day of the assay, medium was removed by aspiration, and cells were washed with assay buffer [HBSS (Invitrogen, Carlsbad, Calif.) containing 20 mM HEPES (Invitrogen, Carlsbad, Calif.)]. After washing, 30 μL assay buffer containing the fluorescent voltage-sensor probe CC2-DMPE (Invitrogen, Carlsbad, Calif.) at 20 μM and 0.01% pluronic F-127 (Invitrogen, Carlsbad, Calif.) was added to the cells. Cells were incubated for 40 minutes at room temperature in the dark. Following the incubation, the cells were washed and 30 μL assay buffer containing 2.5 μM DiSBAC2(3) substrate (Invitrogen, Carlsbad, Calif.) and 0.5 mM VABSC-1 (Invitrogen, Carlsbad, Calif.) was added to the cells. The cells were incubated for 90 minutes at room temperature in the dark. Fluorescence readings were made using a FLIPR®^TETRA (Molecular Devices, Sunnyvale Calif.) equipped with voltage-sensor probe optics. At the start of each experiment the optimal (EC80) concentration of depolarizing agent (veratridine) was determined by testing a dilution curve of assay buffer containing veratridine (Sigma-Aldrich, St. Louis, Mo.) and 1 mg/mL scorpion venom (SVqq, from Leiurus quinquestriatus; Sigma-Aldrich, St. Louis, Mo.). […] Test compounds in the daughter plate were diluted to (˜3×) solutions in assay buffer immediately before assaying. Using the FLIPR®^TETRA, 20 μL of the (3×) compound solutions were first added to the cells, then 20 μL of depolarizing solution (3×EC80 veratridine+SVqq) were added 3 minutes later to activate the channel. Changes in fluorescence were measured at wavelengths of 440-480 nm and 565-625 nm over the course of the experimental run. Membrane depolarization was expressed as a ratio of the maximum F440-480 nm/F565-625 nm reading above average baseline F440-480 nm/F565-625 nm reading. IC50 values were calculated from curve fits of the ratio data using a four-parameter logistic Hill equation (Accelrys Assay Explorer 3.3 Client, Accelrys, San Diego, Calif.) with percent inhibition plotted against compound concentration.
Regarding `O=C1N(CC(O)CC2CCCC2)CCN1c1cccc2c1cnn2-c1ccccc1F` (centres unmarked) [Example 135, 1-(3-cyclopentyl-2-hydroxypropyl)-3-[1-(2-fluorophenyl)-1H-indazol-4-yl]imidazolidin-2-one], the IC50 stood at 904 nM.
For `CC(C)(C)c1cnc(CN2CCN(c3cccc4c3cnn4-c3ccccc3F)C2=O)o1` [Example 233, 1-[(5-tert-butyl-1,3-oxazol-2-yl)methyl]-3-[1-(2-fluorophenyl)-1H-indazol-4-yl]imidazolidin-2-one] the value was 1020 nM.
For `COCCN1CCN(c2cccc3c2cnn3-c2ccccc2F)C1=O` [Example 59, 1-[1-(2-fluorophenyl)-1H-indazol-4-yl]-3-(2-methoxyethyl)imidazolidin-2-one] the value was 1890 nM; for `O=C(CN1CCN(c2cccc3c2cnn3-c2ccccc2F)C1=O)N1CCCC2(CC1)OCCO2` [Example 110, 1-[2-(1,4-dioxa-8-azaspiro[4.6]undec-8-yl)-2-oxoethyl]-3-[1-(2-fluorophenyl)-1H-indazol-4-yl]imidazolidin-2-one], 2810 nM; for `C[C@@]1(c2cccc(F)c2)C[C@@H](N2CCN(c3cccc4c3cnn4-c3ccccc3F)C2=O)CO1` [Example 203, 2,5-anhydro-1,3,4-trideoxy-2-(3-fluorophenyl)-4-{3-[1-(2-fluorophenyl)-1H-indazol-4-yl]-2-oxoimidazolidin-1-yl}-L-threo-pentitol], 3670 nM.
For `O=C1N(c2cccc3c2cnn3-c2ccccc2F)CCN1C1CCC1` [Example 184, 1-cyclobutyl-3-[1-(2-fluorophenyl)-1H-indazol-4-yl]imidazolidin-2-one] the value was 1060 nM; for `CC(C)C[C@](C)(O)CN1CCN(c2cccc3c2cnn3-c2ccccc2F)C1=O` [Example 168, 1-[1-(2-fluorophenyl)-1H-indazol-4-yl]-3-[(2S)-2-hydroxy-2,4-dimethylpentyl]imidazolidin-2-one], 816 nM; for `O=C1N(CC(=O)N2CCC[C@@H]2c2ccccc2)CCN1c1cccc2c1cnn2-c1ccccc1F` [Example 128, 1-[1-(2-fluorophenyl)-1H-indazol-4-yl]-3-{2-oxo-2-[(2R)-2-phenylpyrrolidin-1-yl]ethyl}imidazolidin-2-one], 746 nM.
For `O=C1N(c2cncnc2)CCN1c1cccc2c1cnn2-c1ccccc1F` [Example 138, 1-[1-(2-fluorophenyl)-1H-indazol-4-yl]-3-(pyrimidin-5-yl)imidazolidin-2-one], the IC50 was determined as 3310 nM.
For `COC(=O)[C@H]1CCCN1C(=O)CN1CCN(c2cccc3c2cnn3-c2ccccc2F)C1=O` [Example 119, methyl 1-({3-[1-(2-fluorophenyl)-1H-indazol-4-yl]-2-oxoimidazolidin-1-yl}acetyl)-D-prolinate] the value was 1760 nM.
For `CC(C)C[C@H](O)CN1CCN(c2cccc3c2cnn3-c2ccccc2F)C1=O` [Example 156, 1-[1-(2-fluorophenyl)-1H-indazol-4-yl]-3-[(2S)-2-hydroxy-4-methylpentyl]imidazolidin-2-one] the value was 1350 nM; for `O=C1N(c2cccnn2)CCN1c1cccc2c1cnn2-c1ccccc1F` [Example 208, 1-[1-(2-fluorophenyl)-1H-indazol-4-yl]-3-(pyridazin-3-yl)imidazolidin-2-one], 3260 nM; for `CC(C)OCC(=O)N1CCN(c2cccc3c2cnn3-c2ccccc2F)C1=O` [Example 96, 1-[1-(2-fluorophenyl)-1H-indazol-4-yl]-3-(isopropoxyacetyl)imidazolidin-2-one], 1640 nM.
With `O=C1N(CC(=O)N2CCCC2c2ccccc2)CCN1c1cccc2c1cnn2-c1ccccc1F` (centres unmarked) [Example 129, 1-[1-(2-fluorophenyl)-1H-indazol-4-yl]-3-[2-oxo-2-(2-phenylpyrrolidin-1-yl)ethyl]imidazolidin-2-one], the IC50 was determined as 403 nM.

What is called IC50 is the concentration that inhibits the measured activity by half.

The record behind these values is patent publication US9783527B2, “Indazole ureas and method of use” (AbbVie Inc., priority 2014, dated 2017).
